# Test results as given in publication PMC4278257 (International Journal of Biological Sciences, 2015).
# Residue numbers refer to the chain shown, from its start. Entries after “also recorded” stand apart in the source; their conditions may differ. Read-outs that look alike come from different tables or passages of the source.
# Columns and labels:
# SlitOBP1 = biological target: T1, SlitOBP1 (Spodoptera litura, UniProt A1Z1R1); test: Fluorescence competitive binding assay with 1-NPN, recombinant SlitOBP1; conditions: for binding to SlitOBP1 in the competitive fluorescence binding assay, in words: wild-type SlitOBP1, displacement of 1-NPN
# T1 sequence (A1Z1R1 20-164): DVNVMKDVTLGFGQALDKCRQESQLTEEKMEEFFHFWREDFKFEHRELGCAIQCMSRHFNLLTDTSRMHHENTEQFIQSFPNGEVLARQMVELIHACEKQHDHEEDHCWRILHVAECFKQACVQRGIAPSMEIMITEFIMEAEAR
# [1] = biological target: T2, SlitOBP1 Phe12 (phenylalanine to alanine) (Spodoptera litura, UniProt A1Z1R1, F31A); test: Fluorescence binding assay with 1-NPN, mutant SlitOBP1 Phe12
# T2 sequence (A1Z1R1 20-164 F31A): T1 sequence (A1Z1R1 20-164) with F12A
# [2] = biological target: T3, SlitOBP1 Ile52 (isoleucine to alanine) (Spodoptera litura, UniProt A1Z1R1, I71A); test: Fluorescence binding assay with 1-NPN, mutant SlitOBP1 Ile52
# T3 sequence (A1Z1R1 20-164 I71A): T1 sequence (A1Z1R1 20-164) with I52A
# [3] = biological target: T4, SlitOBP1 Thr9 (threonine to alanine) (Spodoptera litura, UniProt A1Z1R1, T28A); test: Fluorescence binding assay with 1-NPN, mutant SlitOBP1 Thr9
# T4 sequence (A1Z1R1 20-164 T28A): T1 sequence (A1Z1R1 20-164) with T9A
# [4] = biological target: T5, SlitOBP1 Glu98 (glutamic to alanine) (Spodoptera litura, UniProt A1Z1R1, E117A); test: Fluorescence binding assay with 1-NPN, mutant SlitOBP1 Glu98
# T5 sequence (A1Z1R1 20-164 E117A): T1 sequence (A1Z1R1 20-164) with E98A
# [5] = biological target: T6, SlitOBP1 Trp37 (tryptophan to alanine) (Spodoptera litura, UniProt A1Z1R1, W56A); test: Fluorescence binding assay with 1-NPN, mutant SlitOBP1 Trp37
# T6 sequence (A1Z1R1 20-164 W56A): T1 sequence (A1Z1R1 20-164) with W37A
# [6] = 2 μM SlitOBP1, 2 μM 1-NPN, ligand 0-20 μM, unit inferred
Ki (SlitOBP1),IC50 (SlitOBP1; [6]),Compound,"binding to SlitOBP1 in the competitive fluorescence binding assay, in words (SlitOBP1)",other results
,,"N#CC(F)(F)C(F)(F)C(F)(F)C(F)(F)C(F)(F)C(F)(F)C(F)(F)C(F)(F)C#N [2342-09-8, Perfluorosebaconitrile]",no binding potential,
3.1 µM,5.02 µM,"C[C@]12C=CC(=O)C=C1CC[C@@H]1[C@@H]2[C@@H](O)C[C@@]2(C)[C@H]1CC[C@]2(O)C(=O)CO [50-24-8, 11β,17α,21-trihydroxypregna-1,4-diene-3,20-dione, reference compound]",high affinities; also recorded: could effectively displace 1-NPN,
,,"c1ccc(Nc2cccc3ccccc23)cc1 [1-NPN, N-phenyl-1-naphthylamine, reference compound]",,Kd (SlitOBP1): 3.24 ± 0.2 µM; Kd [1]: 6.78 ± 0.25 µM; Kd [2]: 5.43 ± 0.31 µM; Kd [3]: 4.21 ± 0.19 µM; Kd [4]: 3.67 ± 0.25 µM; Kd [5]: 4.54 ± 0.28 µM
5.12 µM,8.28 µM,"CC(=O)[C@@]12O[C@@H]1C[C@H]1[C@@H]3CC=C4C[C@@H](O)CC[C@]4(C)[C@H]3CC[C@@]12C [974-23-2, 16,17-epoxypregnenolone]",,
4.47 µM,7.23 µM,"N[C@@H](Cc1ccc(O)cc1)C(=O)OCc1ccccc1 [42406-77-9, L-Tyrosine benzyl ester]",,
5.84 µM,9.45 µM,"OCC(F)(F)C(F)(F)C(F)(F)C(F)(F)C(F)(F)C(F)(F)C(F)(F)CO [203303-01-9, 1H,1H,9H,9H-perfluoro-1,9-nonanediol]",,
9.13 µM,14.8 µM,"CC(=O)[C@H]1CC[C@H]2[C@@H]3CC=C4C[C@@H](O)CC[C@]4(C)[C@H]3CC[C@]12C [145-13-1, Delta-5-pregnenolone]",,
4.44 µM,7.18 µM,"NC(=O)[C@@H]1CCCN1C(=O)[C@H](Cc1cnc[nH]1)NC(=O)[C@@H]1CCC(=O)N1 [24305-27-9, Pyr-His-Pro-NH2]",,
3.78 µM,6.11 µM,"NCC(=O)NC(Cc1ccc(O)cc1)C(=O)NCC(=O)O (stereo not drawn) [6099-08-7, H-Gly-Tyr-Gly-OH]",,"binding to the mutant compared with the wild type, in words ([3]; mutant Thr9): better binding activities; binding to the mutant compared with the wild type, in words ([4]; mutant Glu98): better binding activities"
3.09 µM,5 µM,"C[C@]12C=CC(=O)C=C1CC[C@@H]1[C@@H]2C(=O)C[C@@]2(C)[C@H]1CC[C@]2(O)C(=O)CO [53-03-2, 1,2-Dehydrocortisone, reference compound]",high affinities; also recorded: could effectively displace 1-NPN,
4.65 µM,7.52 µM,"CC[C@H](C)[C@H](NC(=O)[C@@H](N)CCCCN)C(=O)O [20556-13-2, H-Lys-Ile-OH]",,
,,"NCCC(F)(F)C(F)(F)C(F)(F)C(F)(F)C(F)(F)C(F)(F)C(F)(F)C(F)(F)F [30670-30-5, 1H,1H,2H,2H-perfluorodecylamine]",no binding potential,
3.69 µM,5.97 µM,"OCCC(F)(F)C(F)(F)C(F)(F)C(F)(F)C(F)(F)C(F)(F)C(F)(F)C(F)(F)F [678-39-7, 1H,1H,2H,2H-perfluoro-1-decanol]",,"binding to the mutant compared with the wild type, in words ([5]; mutant Trp37): better binding activities"
4.14 µM,,"CC(C)(C)OC(=O)C[C@H](NC(=O)OCc1ccccc1)C(=O)O [5545-52-8, N-Cbz-L-Aspartic acid 4-tert-butyl ester]",,IC50 (SlitOBP1): 6.7 µM
4.13 µM,6.68 µM,"OCC(F)(F)C(F)(F)C(F)(F)C(F)(F)C(F)(F)C(F)(F)C(F)(F)C(F)(F)CO [754-96-1, 1H,1H,10H,10H-perfluoro-1,10-decanediol]",,

Compound,Ki (SlitOBP1),IC50 (SlitOBP1; [6]),"binding to SlitOBP1 in the competitive fluorescence binding assay, in words (SlitOBP1)",other results
"O=C(O)C(F)(F)C(F)(F)C(F)(F)C(F)(F)C(F)(F)C(F)(F)C(F)(F)C(F)(F)F [375-95-1, Perfluorononanoic acid]",3.76 µM,6.08 µM,high affinities; also recorded: could effectively displace 1-NPN,
"O=C(O)C(F)(F)C(F)(F)C(F)(F)C(F)(F)C(F)(F)C(F)(F)C(F)(F)C(F)(F)Cl [865-79-2, 9-Chlorohexadecafluorononanoic acid]",3.73 µM,,high affinities; also recorded: could effectively displace 1-NPN,IC50 (SlitOBP1): 6 µM
